Experimental data reported in patent US9233071B2, “Methods for treating retinopathy with extended therapeutic effect” (Allergan, Inc., priority 2004, dated 2016).

Key:
[1] = system: glaucoma; settings: after stopping topical medication; cited from earlier work
[2] = system: patients with glaucoma; assay: Loss of IOP lowering upon cessation of chronic topical anti-glaucoma medication (Example A); format: in vivo, human; settings: for mean IOP from baseline on day 28: day 28, after four weeks of topical medication; for mean IOP from baseline on day 30: day 30, after 2 days with no medication
Excerpt: To examine loss or reduction of a therapeutic effect (i.e. IOP lowering) upon cessation of chronic medication administration used to treatment a chronic ocular condition, three different populations of patients with glaucoma were examined.
1. A population of twenty patients with glaucoma was examined.

[3] = 0.1% ophthalmic suspension, 1 drop 4 times a day (approximately 200 μg per day); cited from earlier work
[4] = system: VEGF165-induced retinal vasculopathy; assay: Remnant effect after intravitreal triamcinolone acetonide, VEGF165-induced retinal vasculopathy (Example 9); format: in vivo, Dutch-belted rabbits; settings: 48 hours after VEGF165; 4 mg TA removed after one minute
Procedure: An experiment was carried out which determined existence of a remnant effect (i.e. a therapeutic effect of the active agent when a therapeutic amount of the active agent was not longer present) of intravitreal triamcinolone. Six Dutch-belted rabbits were divided into two groups of three each. After standard pars plana vitrectomy, one group received 4 mg of the glucocorticoid triamcinolone acetonide (TA) in a 0.1 ml volume (Kenalog® 40), and the other group received 0.1 ml of a 5% PLGA (poly lactic/glycolic acid) solution. One minute later the TA or PLGA was removed with a subtotal vitrectomy and soft tip needle. Forty-eight hours after the surgery VEGF165 (500 ng/50 μl) was injected intravitreally via a 29 gauge needle to induce retinal vasculopathy and assess a pharmacological action of any remnant effect of either TA or PLGA. Assessment of retinal color fundus imaging, fluorescein angiography (FA), and fluorometry was made upon VEGF administration and 48 hours following such administration to assess leak from the retina vasculature as a result of VEGF165 administration, and the effect of either TA or PLGA on such leakage.

## CC[C@@H]1C(=O)OC[C@@H]1Cc1cncn1C [pilocarpine]
[1]
  washout period (return to baseline IOP) of topical anti-glaucoma medication: about 48 hours

## CCNC(=O)CCC/C=C\C[C@@H]1[C@@H](/C=C/[C@@H](O)CCc2ccccc2)[C@H](O)C[C@@H]1O [Lumigan, Bimatoprost]
[2]
  mean IOP from baseline on day 28: −8 mm Hg
  mean IOP from baseline on day 30: −6 mm Hg

## C[C@@H]1C[C@H]2[C@@H]3CCC4=CC(=O)C=C[C@]4(C)[C@@]3(F)[C@@H](O)C[C@]2(C)[C@@]1(O)C(=O)CO [dexamethasone]
[3]
  share of the topical dose that reaches the anterior segment: about 1%

## Brc1c(NC2=NCCN2)ccc2nccnc12 [brimonidine]
[2]; day 14, after 14 days of topical medication
  mean IOP from baseline on day 14: −2 mm Hg
[2]; day 15, after 24 hours with no medication
  mean IOP from baseline on day 15: −0.8 mm Hg
[1]
  washout period (return to baseline IOP) of topical anti-glaucoma medication: two to four and five

## CC(C)(C)NC[C@H](O)COc1nsnc1N1CCOCC1 [timolol]
[2]
  mean IOP from baseline on day 28: −4 mm Hg
  mean IOP from baseline on day 30: −2 mm Hg

## CC1(C)O[C@@H]2C[C@H]3[C@@H]4CCC5=CC(=O)C=C[C@]5(C)[C@@]4(F)[C@@H](O)C[C@]3(C)[C@]2(C(=O)CO)O1 [TA, triamcinolone acetonide]
[4]
  Fluorophotometry area under the curve, change from baseline: 3±65%

## CCN[C@H]1C[C@H](C)S(=O)(=O)c2sc(S(N)(=O)=O)cc21 [dorzolamide]
[1]
  washout period (return to baseline IOP) of topical anti-glaucoma medication: two to four

## CNC[C@H](O)c1ccc(O)c(O)c1 [epinephrine]
[1]
  washout period (return to baseline IOP) of topical anti-glaucoma medication: about three
